# Tests used:
# [1] = test system: non-pre-treated Sprague-Dawley rats; test: Locomotor activity in drug-naïve rats (behaviour test); assay type: in vivo, rat; settings: recorded 60 minutes, n = 5
# Experimental: The effect of compounds in the present disclosure on locomotor activity in drug-naïve rats was also investigated. The animals were placed in the motility meters immediately after drug administration and locomotor activity was recorded for 60 minutes (counts/60 min±SEM). The results are presented as percent of control.
# Behavioural activity was measured using eight Digiscan activity monitors (RXYZM (16) TAO, Omnitech Electronics, Columbus, Ohio, USA), connected to an Omnitech Digiscan analyzer and an Apple Macintosh computer equipped with a digital interface board (NB DIO-24, National Instruments, USA). Each activity monitor consisted of a quadratic metal frame (W×L=40 cm×40 cm) equipped with photo beam sensors. During measurements of behavioural activity, a rat was put in a transparent acrylic cage (W×L×H, 40×40×30 cm) which in turn was placed in the activity monitor. Each activity monitor was equipped with three rows of infrared photo beam sensors, each row consisting of 16 sensors. Two rows were placed along the front and the side of the floor of the cage, at a 90° angle, and the third row was placed 10 cm above the floor to measure vertical activity. Photo beam sensors were spaced 2.5 cm apart. Each activity monitor was fitted in an identical sound and light attenuating box containing a weak house light and a fan.
# The computer software was written using object oriented programming (LabVIEW™, National instruments, Austin, Tex., USA).
# Behavioural data from each activity monitor, representing the position (horizontal center of gravity and vertical activity) of the animal at each time, were recorded at a sampling frequency of 25 Hz and collected using a custom written LABView™ application. The data from each recording session were stored and analyzed with respect to distance traveled. Each behavioural recording session lasted 60 min, starting approximately 5 min after the injection of test compound.
# Compounds disclosed herein have been tested for effects on spontaneous locomotor activity in non-pre-treated Sprague-Dawley rats (based on accumulated distance traveled 0-60 min post dosing), and with doses up to 33 μmol/kg (s.c.).
# DOPAC = test: Neurochemistry: tissue levels of DOPAC in brain regions; assay type: in vivo, rat; settings: 33 μmol/kg s.c., rats, 65 min before sacrifice, n = 5; for DOPAC frontal cortex ± SEM: frontal cortex tissue; for DOPAC striatum ± SEM: striatum tissue
# Description: The change in turnover of dopamine in the terminal areas of the ascending dopaminergic projections of the mammalian brain can be illustrated by measuring of changes in biochemical indices in the brain e.g. changes in concentrations of dopamine metabolites such as 3,4-dihydroxyphenyl-acetic acid (DOPAC) in the striatum and frontal cortex.
# The measurement of the tissue content of DOPAC is well established in the field of research since the 1960's. In short, male Sprague-Dawley rats are administered the test compound 60 minutes prior to decapitation. The brain is rapidly taken out and dissected. The striatum is rapidly frozen and subsequently quantitatively analyzed with respect to its content of DOPAC by means of HPLC and electrochemical detection. The number of animals used for each test compound/vehicle is 5/group.
# After the behavioural activity sessions, the rats were decapitated and their brains rapidly taken out and put on an ice-cold petri-dish. The brains were dissected into a right and a left part of which the right part was analyzed for neurochemicals with HPLC and the left part was analyzed for gene expression. The limbic forebrain, the striatum, the frontal cortex, the hippocampus and the remaining hemispheral parts of each rat were dissected and frozen. Each brain part was subsequently analyzed with respect to its content of monoamines and their metabolites.
# The monoamine transmitter substances (NA (noradrenaline), DA (dopamine), 5-HT (serotonin)) as well as one corresponding acid, (DOPAC (3,4-dihydroxyphenylacetic acid), were quantified in brain tissue homogenates by HPLC separations and electrochemical detection.
# The analytical method is based on two chromatographic separations dedicated for amines or acids. Two chromatographic systems share a common auto injector with a 10-port valve and two sample loops for simultaneous injection on the two systems. Both systems are equipped with a reverse phase column (Luna C18 (2), dp 3 μm, 50*2 mm i.d., Phenomenex) and electrochemical detection is accomplished at two potentials on glassy carbon electrodes (MF-1000, Bioanalytical Systems, Inc.). The column effluent is passed via a T-connection to the detection cell or to a waste outlet. This is accomplished by two solenoid valves, which block either the waste or detector outlet. By preventing the chromatographic front from reaching the detector, better detection conditions are achieved. The aqueous mobile phase (0.4 ml/min) for the acid system contains citric acid 14 mM, sodium citrate 10 mM, Methanol 15% (v/v) and EDTA 0.1 mM. Detection potentials relative to Ag/AgCl reference are 0.45 and 0.60V. […] Detection potentials relative to Ag/AgCl reference are 0.45 and 0.65V.
smiles,measurement,setting,value
"Cl.Fc1cccc(C(F)C2CNC2)c1F (single isomer, unassigned; (-)) [Example 1, (−)-3-[(2,3-Difluorophenyl)(Fluoro)Methyl]Azetidine Hydrochloric Acid Salt]","locomotor activity, percent of control means",[1]; 11 μmol/kg s.c.,61%
same,"locomotor activity, percent of control means",[1]; 33 μmol/kg s.c.,91%
same,DOPAC frontal cortex ± SEM,DOPAC,188 ± 20% of control means
same,DOPAC striatum ± SEM,DOPAC,100 ± 8% of control means
"Fc1cc(F)cc(C(F)C2CNC2)c1.O=C(O)/C=C/C(=O)O (single isomer, unassigned; (-)) [Example 3, (−)-3-[(3,5-Difluorophenyl)(Fluoro)Methyl]Azetidine Fumarate Salt]","locomotor activity, percent of control means",[1]; 11 μmol/kg s.c.,68%
same,"locomotor activity, percent of control means",[1]; 33 μmol/kg s.c.,46%
same,DOPAC frontal cortex ± SEM,DOPAC,161 ± 6% of control means
same,DOPAC striatum ± SEM,DOPAC,83 ± 2% of control means
